Assay results published in patent US20230355501A1, “COSMETIC COMPOSITION” (AJINOMOTO CO., INC., priority 2021, published 2023).

assay: Melting point of PHC compositions by differential scanning calorimeter; format: physicochemical; details: DSC7000X, approx. 2 mg, nitrogen atmosphere, from 25° C. at 5° C./min
Description: PHCs in a mixing ratio shown in Table 2 were mixed in a mortar, to prepare each sample.
Each sample in an amount of approximately 2 mg was heated under a nitrogen atmosphere using a differential scanning calorimeter DSC7000X (Hitachi High-Tech Science Corporation) with the temperature raised from 25° C. at a rate of 5° C./min. The temperature at the intersection of the base line and the inflection point of endothermic peak was taken as the melting point of the sample.

Going from `CCCCCCCCCCCCCCCCCC(=O)NC(CO)C(O)C(O)CCCCCCCCCCCC` (stereo not drawn) [Sample 11, C18:0-PHS16:0] to `CCCCCCCCCCCCCCCCCC(=O)NC(CO)C(O)C(O)CCCCCCCCCCCCCC` (stereo not drawn) [Sample 12, C18:0-PHS18:0], the Melting point rises from 122.0 °C to 124.2 °C.

For `CCCCCCCCCCCCCCCCCC(=O)NC(CO)C(O)C(O)CCCCCCCCCCCCCCCC` (stereo not drawn) [Sample 13, C18:0-PHS20:0], the Melting point was 126.2 °C.
